The IC50 is the concentration needed to halve the response being measured.

The target in one assay is Histone deacetylase 2 (Homo sapiens, UniProt Q92769). The assay can be described thus: Inhibition of recombinant C-terminal His-tagged full length human HDAC2 expressed in baculovirus infected insect Sf9 cells using fluorogenic HDAC substrate 3 after 30 mins by fluorescence assay. Format: cell-based.
Assay [1] concerns the target T1, Protein deacetylase HDAC6 (Homo sapiens, UniProt Q9UBN7).
T1 sequence (Q9UBN7 whole entry): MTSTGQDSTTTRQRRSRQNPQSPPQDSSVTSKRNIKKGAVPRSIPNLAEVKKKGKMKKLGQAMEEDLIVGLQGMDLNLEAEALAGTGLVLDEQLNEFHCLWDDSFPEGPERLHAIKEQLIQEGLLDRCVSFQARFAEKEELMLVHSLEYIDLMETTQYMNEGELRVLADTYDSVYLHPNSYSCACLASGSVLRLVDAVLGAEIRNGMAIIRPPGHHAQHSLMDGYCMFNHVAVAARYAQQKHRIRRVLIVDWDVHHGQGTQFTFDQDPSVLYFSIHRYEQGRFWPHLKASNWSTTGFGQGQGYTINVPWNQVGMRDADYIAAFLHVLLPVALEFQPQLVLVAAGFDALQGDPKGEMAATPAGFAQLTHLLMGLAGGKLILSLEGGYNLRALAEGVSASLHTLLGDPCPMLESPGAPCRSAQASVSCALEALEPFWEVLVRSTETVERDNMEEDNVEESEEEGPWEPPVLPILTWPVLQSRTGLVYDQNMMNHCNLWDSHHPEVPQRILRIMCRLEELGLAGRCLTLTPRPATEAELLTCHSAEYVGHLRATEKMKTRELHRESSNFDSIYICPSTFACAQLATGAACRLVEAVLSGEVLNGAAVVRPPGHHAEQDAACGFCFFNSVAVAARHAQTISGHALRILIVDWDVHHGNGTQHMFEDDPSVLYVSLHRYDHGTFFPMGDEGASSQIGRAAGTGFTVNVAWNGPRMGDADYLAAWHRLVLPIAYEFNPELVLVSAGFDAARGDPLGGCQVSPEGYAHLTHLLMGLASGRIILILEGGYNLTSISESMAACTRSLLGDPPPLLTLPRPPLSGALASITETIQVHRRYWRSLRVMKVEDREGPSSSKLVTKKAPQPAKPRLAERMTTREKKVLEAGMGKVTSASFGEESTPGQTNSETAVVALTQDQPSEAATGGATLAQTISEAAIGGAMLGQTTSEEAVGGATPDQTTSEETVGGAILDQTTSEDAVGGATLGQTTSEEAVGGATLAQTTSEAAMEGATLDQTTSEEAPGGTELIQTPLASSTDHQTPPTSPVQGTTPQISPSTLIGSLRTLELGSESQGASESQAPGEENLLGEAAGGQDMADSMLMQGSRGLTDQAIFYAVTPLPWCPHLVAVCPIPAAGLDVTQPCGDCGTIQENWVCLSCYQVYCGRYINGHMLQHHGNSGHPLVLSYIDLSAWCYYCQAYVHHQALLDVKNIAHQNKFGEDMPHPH
In words: Inhibition of recombinant N-terminal GST-tagged full length human HDAC6 expressed in baculovirus infected insect Sf9 cells using fluorogenic HDAC substrate 3 after 30 mins by fluorescence assay.

Assay [2] can be described thus: Cytotoxicity against HLF assessed as growth inhibition after 72 hrs by MTT assay. The settings on record: Homo sapiens. It counts as functional. In general terms: Tetrazolium dyes change colour on reduction, which living cells bring about.
For assay [3], the target named is Histone deacetylase 3/Nuclear receptor corepressor 2 (HDAC3/NCoR2) (Homo sapiens, UniProt O15379). The assay can be described thus: Inhibition of recombinant C-terminal His-tagged full length human HDAC3/NcoR2 complex expressed in baculovirus infected insect Sf9 cells using fluorogenic HDAC substrate 3 after 30 mins by fluorescence assay.
Histone deacetylase 3/Nuclear receptor corepressor 2 (HDAC3/NCoR2), sequence (O15379 whole entry): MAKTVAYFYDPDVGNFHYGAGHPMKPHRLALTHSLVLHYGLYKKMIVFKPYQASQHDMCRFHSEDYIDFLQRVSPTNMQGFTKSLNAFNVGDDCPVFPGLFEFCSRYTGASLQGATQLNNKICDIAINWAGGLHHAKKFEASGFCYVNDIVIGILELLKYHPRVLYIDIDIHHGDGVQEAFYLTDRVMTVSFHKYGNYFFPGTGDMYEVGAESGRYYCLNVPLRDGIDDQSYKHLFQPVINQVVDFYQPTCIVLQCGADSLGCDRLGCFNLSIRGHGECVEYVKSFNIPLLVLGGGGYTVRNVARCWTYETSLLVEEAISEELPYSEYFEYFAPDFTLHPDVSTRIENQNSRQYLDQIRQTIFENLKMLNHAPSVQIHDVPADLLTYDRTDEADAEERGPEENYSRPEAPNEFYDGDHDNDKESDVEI
Histone deacetylase 3/Nuclear receptor corepressor 2 (HDAC3/NCoR2), sequence (Q9Y618 whole entry, further chain): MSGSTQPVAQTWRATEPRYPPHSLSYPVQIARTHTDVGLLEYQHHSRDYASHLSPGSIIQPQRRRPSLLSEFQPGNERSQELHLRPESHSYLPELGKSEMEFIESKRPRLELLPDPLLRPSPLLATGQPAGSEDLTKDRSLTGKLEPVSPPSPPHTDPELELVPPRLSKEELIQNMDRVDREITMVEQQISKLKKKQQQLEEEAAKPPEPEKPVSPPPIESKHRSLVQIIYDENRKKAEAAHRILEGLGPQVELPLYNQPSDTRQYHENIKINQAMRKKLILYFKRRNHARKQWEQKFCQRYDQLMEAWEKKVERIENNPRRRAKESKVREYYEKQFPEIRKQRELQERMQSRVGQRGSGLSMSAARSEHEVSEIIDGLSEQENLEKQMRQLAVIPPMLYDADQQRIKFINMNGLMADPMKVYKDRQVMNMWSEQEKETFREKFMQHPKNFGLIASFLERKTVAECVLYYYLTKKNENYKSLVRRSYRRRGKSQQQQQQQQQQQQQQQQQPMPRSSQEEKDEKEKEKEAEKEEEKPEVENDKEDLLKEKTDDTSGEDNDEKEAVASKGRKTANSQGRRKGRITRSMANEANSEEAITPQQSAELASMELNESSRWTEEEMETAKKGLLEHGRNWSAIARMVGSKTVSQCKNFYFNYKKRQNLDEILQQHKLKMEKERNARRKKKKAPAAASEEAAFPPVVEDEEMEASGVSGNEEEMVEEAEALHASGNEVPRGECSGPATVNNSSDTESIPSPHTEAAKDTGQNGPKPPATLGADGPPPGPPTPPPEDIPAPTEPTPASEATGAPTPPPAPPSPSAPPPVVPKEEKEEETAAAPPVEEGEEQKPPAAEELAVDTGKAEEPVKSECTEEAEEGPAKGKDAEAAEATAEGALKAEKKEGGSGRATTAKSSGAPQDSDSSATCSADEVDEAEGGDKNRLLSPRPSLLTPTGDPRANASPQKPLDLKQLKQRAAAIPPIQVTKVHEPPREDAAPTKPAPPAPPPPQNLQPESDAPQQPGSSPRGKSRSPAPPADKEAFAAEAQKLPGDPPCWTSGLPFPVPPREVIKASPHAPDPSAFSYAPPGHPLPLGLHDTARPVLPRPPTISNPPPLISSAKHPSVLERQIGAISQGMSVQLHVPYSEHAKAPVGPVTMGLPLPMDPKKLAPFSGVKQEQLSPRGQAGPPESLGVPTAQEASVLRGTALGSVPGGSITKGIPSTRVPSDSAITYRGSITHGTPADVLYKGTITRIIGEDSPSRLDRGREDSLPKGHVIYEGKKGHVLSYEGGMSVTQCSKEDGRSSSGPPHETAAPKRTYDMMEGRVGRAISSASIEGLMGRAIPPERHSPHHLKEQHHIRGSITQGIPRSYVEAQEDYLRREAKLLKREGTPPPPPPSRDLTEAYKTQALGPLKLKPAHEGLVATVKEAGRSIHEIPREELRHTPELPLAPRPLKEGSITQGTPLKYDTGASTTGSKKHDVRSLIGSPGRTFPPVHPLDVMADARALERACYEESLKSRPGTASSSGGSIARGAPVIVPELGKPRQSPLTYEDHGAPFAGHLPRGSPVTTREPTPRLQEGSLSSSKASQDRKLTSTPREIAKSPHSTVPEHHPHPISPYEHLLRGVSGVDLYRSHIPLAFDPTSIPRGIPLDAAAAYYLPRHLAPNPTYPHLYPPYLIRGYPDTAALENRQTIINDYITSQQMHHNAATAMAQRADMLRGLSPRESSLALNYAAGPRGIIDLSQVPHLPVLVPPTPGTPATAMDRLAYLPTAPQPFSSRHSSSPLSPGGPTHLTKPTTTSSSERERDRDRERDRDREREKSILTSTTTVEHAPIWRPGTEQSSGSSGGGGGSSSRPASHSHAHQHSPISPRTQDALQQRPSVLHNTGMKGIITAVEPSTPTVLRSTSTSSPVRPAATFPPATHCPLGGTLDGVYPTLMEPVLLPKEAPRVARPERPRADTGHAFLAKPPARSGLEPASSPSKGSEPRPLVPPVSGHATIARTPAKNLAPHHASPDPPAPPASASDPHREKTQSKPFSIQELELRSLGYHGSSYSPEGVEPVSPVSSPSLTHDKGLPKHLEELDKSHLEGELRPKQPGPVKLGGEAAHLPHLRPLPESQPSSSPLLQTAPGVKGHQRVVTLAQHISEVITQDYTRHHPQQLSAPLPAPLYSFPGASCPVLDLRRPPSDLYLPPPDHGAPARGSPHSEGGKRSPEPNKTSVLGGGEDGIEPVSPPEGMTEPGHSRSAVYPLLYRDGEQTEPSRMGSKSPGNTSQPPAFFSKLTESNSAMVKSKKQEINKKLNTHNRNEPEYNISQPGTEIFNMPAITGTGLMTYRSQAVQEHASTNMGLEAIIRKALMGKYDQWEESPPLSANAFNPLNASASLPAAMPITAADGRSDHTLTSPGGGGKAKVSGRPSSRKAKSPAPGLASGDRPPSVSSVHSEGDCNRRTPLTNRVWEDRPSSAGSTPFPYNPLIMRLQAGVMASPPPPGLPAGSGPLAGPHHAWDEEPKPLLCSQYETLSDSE
The target in the next assay is Histone deacetylase 1 (Homo sapiens, UniProt Q13547). The assay can be described thus: Inhibition of recombinant full length human HDAC1 (1 to 482) expressed in baculovirus infected insect Sf9 cells using fluorogenic HDAC substrate 3 after 30 mins by fluorescence assay.
Histone deacetylase 1, sequence (Q13547 whole entry): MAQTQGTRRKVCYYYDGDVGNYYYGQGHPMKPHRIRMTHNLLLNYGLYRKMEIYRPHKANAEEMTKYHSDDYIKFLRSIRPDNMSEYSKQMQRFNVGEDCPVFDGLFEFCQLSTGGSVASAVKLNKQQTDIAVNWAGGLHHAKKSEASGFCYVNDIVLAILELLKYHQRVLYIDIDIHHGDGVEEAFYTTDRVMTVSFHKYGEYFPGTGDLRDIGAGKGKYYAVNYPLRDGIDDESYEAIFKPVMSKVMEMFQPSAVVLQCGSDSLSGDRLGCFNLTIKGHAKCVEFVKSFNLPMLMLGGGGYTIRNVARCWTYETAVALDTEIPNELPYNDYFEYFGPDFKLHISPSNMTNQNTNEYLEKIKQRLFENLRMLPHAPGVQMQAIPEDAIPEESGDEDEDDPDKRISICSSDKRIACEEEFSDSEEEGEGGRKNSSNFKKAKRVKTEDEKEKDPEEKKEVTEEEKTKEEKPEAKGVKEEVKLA
For assay [4], the system named is HCT-116. In words: Induction of apoptosis in human HCT116 cells assessed as necrotic cells at 5 uM after 48 hrs by annexin V-FITC/propidium iodide staining-based flow cytometric analysis (reference value: 5.25%). It counts as functional. In general terms: In flow cytometry, cells or beads pass a laser one at a time.
In assay [5] the test system is HCT-116. In words: Induction of apoptosis in human HCT116 cells assessed as early apoptotic cells at 5 uM after 48 hrs by annexin V-FITC/propidium iodide staining-based flow cytometric analysis (reference value: 2.76%). Format: functional.
A further assay relates to MDA-MB-231. In words: Cytotoxicity against human MDA-MB-231 cells assessed as growth inhibition after 72 hrs by MTT assay. Format: functional, cell-based. The conditions noted are these: MDA-MB-231, 72 h.
The subject of assay [6] is HCT-116. In words: Cytotoxicity against human HCT116 cells assessed as growth inhibition after 72 hrs by MTT assay. It counts as functional, cell-based. The conditions noted are these: HCT-116, 72 h.
For assay [7], the system named is HCT-116. In words: Induction of apoptosis in human HCT116 cells assessed as late apoptotic cells at 5 uM after 48 hrs by annexin V-FITC/propidium iodide staining-based flow cytometric analysis (reference value: 3.03%). It counts as functional.

The structures appear in SMILES notation.

Histone deacetylase 2, sequence (Q92769 whole entry): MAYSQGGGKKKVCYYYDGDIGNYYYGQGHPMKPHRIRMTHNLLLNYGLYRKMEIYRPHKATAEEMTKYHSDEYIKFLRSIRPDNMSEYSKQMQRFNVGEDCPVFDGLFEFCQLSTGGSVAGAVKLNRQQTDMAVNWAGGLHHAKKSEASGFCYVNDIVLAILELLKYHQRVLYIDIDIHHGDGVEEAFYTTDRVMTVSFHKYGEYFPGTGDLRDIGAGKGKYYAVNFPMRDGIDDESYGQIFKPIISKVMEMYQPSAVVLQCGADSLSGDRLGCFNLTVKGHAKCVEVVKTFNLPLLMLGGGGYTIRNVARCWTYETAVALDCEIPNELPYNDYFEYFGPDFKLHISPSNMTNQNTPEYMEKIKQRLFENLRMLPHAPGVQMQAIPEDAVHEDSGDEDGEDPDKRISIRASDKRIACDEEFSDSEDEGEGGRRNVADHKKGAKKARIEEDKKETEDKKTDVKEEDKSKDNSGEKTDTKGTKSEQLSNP

In the case of `CN1c2ccc(NCc3ccc(-c4noc(CCCCCCC(=O)NO)n4)cc3)cc2C(=O)N2CCc3c([nH]c4ccc(O)cc34)C21` (stereo not given), the IC50 is 0.275 µM at Histone deacetylase 2; 0.013 µM in assay [1]; 1.3 µM in [2]; 0.071 µM in [3]; 0.024 µM on Histone deacetylase 1; 2.3 µM with MDA-MB-231. In the assay on HCT-116 [6], the IC50 stood at 0.41 µM. The Activity with HCT-116 [4] came out at 7.96%; in the assay on HCT-116 [5] it was 29.76%; in the assay on HCT-116 [7], 42.14%.

The record behind these values is ChEMBL document CHEMBL3576845, “Discovery of Novel Multiacting Topoisomerase I/II and Histone Deacetylase Inhibitors” (ACS Med Chem Lett, 2015).
